Experimental data reported in ChEMBL document CHEMBL1201862, “PubChem BioAssay data set” (2004).
The source made the active and inactive calls.

What was measured:
[1] = biological target: T1, E3 ubiquitin-protein ligase XIAP (Homo sapiens, UniProt P98170); assay: XIAP antagonists, biochemical, IAP family, fluorescence polarization (AID 1018); format: functional
[2] = biological target: T1, E3 ubiquitin-protein ligase XIAP; assay: Counter Screen using XIAP-Bir3 for Chemical Antagonists of Bir1/2 domains of IAP-family anti-apoptotic proteins. [Related pubchem assays (depositor defined):AID1018, AID1449, AID1514, AID1638, AID1749, AID1750, AID488957, AID488963]
[3] = Luminescence Cell-Based Dose-Confimation HTS to Identify Inhibitors of 5'UTR Stem-Loop Driven Alpha-Synuclein mRNA Translation in H4 Neuroglioblastoma Cells. [Related pubchem assays: 1827 (Project Summary), 1813 (Primary HTS)]; format: functional
SUMO-activating enzyme [4] = biological target: T2, SUMO-activating enzyme (Homo sapiens, UniProt Q9UBT2); assay: SUMOylation inhibitor hit validation, confirmation, SUMOylation inhibitor project, biochemical, AlphaScreen (AID 2018); format: functional
T2 sequence (Q9UBE0 whole entry): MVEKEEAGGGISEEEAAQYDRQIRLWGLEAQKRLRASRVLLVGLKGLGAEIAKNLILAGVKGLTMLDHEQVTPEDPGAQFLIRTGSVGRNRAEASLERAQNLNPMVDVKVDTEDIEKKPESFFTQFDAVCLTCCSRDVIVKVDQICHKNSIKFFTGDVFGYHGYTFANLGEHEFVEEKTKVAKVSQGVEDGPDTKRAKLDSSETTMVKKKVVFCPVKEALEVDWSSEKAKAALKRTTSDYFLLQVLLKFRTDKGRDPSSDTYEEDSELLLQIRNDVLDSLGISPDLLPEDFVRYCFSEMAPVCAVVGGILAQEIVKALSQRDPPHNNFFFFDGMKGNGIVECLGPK
T2 sequence (Q9UBT2 whole entry): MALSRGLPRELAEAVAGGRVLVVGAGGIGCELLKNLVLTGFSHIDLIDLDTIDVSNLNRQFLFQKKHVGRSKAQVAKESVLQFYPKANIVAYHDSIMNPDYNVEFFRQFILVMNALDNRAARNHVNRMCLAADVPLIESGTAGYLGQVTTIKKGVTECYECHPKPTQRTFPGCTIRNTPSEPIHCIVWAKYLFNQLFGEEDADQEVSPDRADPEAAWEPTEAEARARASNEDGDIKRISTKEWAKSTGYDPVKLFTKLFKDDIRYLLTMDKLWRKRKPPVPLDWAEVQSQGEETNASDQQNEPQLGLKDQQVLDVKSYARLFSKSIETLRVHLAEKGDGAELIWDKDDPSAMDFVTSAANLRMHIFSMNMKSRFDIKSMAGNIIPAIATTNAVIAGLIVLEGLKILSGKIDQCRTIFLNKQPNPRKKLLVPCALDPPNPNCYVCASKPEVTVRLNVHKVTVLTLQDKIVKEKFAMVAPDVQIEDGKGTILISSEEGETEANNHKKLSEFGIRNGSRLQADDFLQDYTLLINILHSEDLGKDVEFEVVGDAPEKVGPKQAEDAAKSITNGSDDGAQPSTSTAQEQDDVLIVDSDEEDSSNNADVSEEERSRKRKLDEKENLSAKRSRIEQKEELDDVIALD

Bcl-2-like protein 1 = Bcl-2-like protein 1 (Homo sapiens, UniProt Q07817); assay: BCL-XL inhibitors, dose response, selectivity assay for MCL1 inhibitor project, biochemical, fluorescence polarization, 1536-well (AID 2218)
Chain of Bcl-2-like protein 1 (Q07817 whole entry): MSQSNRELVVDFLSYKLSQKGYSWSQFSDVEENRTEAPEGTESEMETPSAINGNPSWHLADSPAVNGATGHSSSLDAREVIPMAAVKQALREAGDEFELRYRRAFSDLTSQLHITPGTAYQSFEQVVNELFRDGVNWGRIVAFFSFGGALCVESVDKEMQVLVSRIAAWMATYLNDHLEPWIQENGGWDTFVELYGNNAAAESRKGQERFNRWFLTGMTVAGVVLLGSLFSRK

[5] = biological target: Dual specificity protein phosphatase 3 (Homo sapiens, UniProt P51452); assay: SAR VHR1 Fluorescent Assay for In Vitro dose response studies. [Related pubchem assays (depositor defined):AID1654, AID1661, AID1878, AID1992, AID2004, AID2070, AID2085]; format: functional
Chain of Dual specificity protein phosphatase 3 (P51452 whole entry): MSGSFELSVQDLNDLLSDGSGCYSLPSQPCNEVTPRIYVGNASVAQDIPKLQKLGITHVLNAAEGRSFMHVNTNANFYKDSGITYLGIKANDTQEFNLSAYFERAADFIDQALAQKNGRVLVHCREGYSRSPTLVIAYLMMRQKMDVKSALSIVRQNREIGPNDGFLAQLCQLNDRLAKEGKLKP

[6] = biological target: T3, Tyrosine-protein phosphatase non-receptor type 7 (Homo sapiens, UniProt P35236); assay: redox-dependent HePTP inhibition, mechanism study, biochemical, fluorescence (AID 2068); format: functional
T3 sequence (P35236 whole entry): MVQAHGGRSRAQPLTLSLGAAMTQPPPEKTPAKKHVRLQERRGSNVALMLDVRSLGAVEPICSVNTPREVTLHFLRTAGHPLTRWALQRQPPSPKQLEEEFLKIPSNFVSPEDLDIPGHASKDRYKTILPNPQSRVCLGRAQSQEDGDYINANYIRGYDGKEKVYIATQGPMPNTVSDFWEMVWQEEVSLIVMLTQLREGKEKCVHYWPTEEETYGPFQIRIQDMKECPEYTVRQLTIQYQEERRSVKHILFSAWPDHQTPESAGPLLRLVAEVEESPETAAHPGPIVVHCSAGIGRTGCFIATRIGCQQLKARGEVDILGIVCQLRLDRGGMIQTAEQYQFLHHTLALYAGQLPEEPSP

[7] = biological target: T4, Induced myeloid leukemia cell differentiation protein Mcl-1 (Homo sapiens, UniProt Q07820); format: functional
T4 sequence (Q07820 whole entry): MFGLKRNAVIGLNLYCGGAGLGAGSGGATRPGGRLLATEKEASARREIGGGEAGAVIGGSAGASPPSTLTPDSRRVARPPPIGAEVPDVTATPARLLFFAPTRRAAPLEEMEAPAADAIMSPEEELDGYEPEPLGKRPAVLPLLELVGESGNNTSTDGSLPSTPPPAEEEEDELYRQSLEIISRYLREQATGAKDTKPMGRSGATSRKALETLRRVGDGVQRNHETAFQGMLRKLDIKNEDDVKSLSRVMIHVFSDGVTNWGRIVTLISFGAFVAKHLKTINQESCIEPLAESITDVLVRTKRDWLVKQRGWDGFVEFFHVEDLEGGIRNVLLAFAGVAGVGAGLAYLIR

[8] = biological target: T5, Dual specificity protein phosphatase 6 (Rattus norvegicus, UniProt Q64346); format: functional
T5 sequence (Q64346 whole entry): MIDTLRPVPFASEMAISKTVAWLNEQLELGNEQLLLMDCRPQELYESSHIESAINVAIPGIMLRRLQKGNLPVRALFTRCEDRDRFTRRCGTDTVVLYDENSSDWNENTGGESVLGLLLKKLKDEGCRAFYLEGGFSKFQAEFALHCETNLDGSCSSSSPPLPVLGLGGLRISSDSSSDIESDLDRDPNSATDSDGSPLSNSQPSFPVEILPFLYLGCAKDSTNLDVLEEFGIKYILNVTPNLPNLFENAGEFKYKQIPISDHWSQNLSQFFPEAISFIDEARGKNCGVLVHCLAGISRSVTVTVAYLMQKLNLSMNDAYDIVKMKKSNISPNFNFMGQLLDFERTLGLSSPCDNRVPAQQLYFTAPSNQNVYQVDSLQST

Genome polyprotein = Genome polyprotein (dengue virus type 2, UniProt P29990); assay: Dengue-2 NS5 methyltransferase inhibitors, primary screen, biochemical, confirmation dose response (AID 588689); format: functional
Chain of Genome polyprotein (P29990 2492-3391 limits assumed): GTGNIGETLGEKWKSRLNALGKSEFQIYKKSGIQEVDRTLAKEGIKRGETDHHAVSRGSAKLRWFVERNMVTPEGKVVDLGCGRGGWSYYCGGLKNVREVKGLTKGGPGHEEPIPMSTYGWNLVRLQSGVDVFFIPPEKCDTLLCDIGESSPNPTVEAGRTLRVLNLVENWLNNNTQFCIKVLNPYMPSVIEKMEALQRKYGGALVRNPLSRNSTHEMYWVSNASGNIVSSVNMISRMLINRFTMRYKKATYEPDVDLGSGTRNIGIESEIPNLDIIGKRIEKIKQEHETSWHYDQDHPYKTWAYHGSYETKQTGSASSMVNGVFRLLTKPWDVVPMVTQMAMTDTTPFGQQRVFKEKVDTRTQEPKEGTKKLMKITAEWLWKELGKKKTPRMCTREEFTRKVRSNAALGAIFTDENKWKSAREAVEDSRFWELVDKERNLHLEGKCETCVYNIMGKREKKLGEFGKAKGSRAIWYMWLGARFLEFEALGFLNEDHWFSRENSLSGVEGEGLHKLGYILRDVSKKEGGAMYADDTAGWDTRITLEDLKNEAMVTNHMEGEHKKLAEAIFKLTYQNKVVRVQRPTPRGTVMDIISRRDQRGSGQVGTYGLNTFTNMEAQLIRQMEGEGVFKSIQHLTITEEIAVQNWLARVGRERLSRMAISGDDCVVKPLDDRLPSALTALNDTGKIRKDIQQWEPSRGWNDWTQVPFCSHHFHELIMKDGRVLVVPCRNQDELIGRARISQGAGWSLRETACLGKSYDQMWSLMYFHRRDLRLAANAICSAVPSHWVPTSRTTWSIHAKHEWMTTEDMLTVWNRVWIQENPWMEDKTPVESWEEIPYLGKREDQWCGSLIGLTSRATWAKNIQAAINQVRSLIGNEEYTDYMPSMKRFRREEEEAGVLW

Bcl-2-like protein 10 = biological target: T6, Bcl-2-like protein 10 (Homo sapiens, UniProt Q9HD36); assay: displacers of TR3 peptide from Bcl-B, primary screen, selectivity assay for Bfl-1 inhibitor project, biochemical, fluorescence polarization, FITC-TR3 peptide (AID 748);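 also: fluorescence polarization from a fluorescein-labelled TR3 peptide binding purified Bcl-B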
T6 sequence (Q9HD36 whole entry): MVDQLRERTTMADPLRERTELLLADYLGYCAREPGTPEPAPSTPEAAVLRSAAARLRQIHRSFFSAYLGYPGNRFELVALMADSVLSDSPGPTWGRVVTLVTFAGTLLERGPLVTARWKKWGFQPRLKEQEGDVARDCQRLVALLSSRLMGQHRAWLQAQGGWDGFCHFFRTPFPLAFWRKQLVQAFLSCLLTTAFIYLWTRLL

[9] = biological target: T4, Induced myeloid leukemia cell differentiation protein Mcl-1; assay: MCL1-BIM BH3 interaction inhibitors, dose response, biochemical, fluorescence polarization, BIM-BH3 peptide, 1536-well (AID 2217)
Estrogen receptor beta = Estrogen receptor beta (Homo sapiens, UniProt Q92731); assay: ERβ–SRC-3 coactivator interaction inhibitors, confirmation, orthogonal assay, biochemical, ELISA, streptavidin-HRP readout (AID 1060)
Chain of Estrogen receptor beta (Q92731 whole entry): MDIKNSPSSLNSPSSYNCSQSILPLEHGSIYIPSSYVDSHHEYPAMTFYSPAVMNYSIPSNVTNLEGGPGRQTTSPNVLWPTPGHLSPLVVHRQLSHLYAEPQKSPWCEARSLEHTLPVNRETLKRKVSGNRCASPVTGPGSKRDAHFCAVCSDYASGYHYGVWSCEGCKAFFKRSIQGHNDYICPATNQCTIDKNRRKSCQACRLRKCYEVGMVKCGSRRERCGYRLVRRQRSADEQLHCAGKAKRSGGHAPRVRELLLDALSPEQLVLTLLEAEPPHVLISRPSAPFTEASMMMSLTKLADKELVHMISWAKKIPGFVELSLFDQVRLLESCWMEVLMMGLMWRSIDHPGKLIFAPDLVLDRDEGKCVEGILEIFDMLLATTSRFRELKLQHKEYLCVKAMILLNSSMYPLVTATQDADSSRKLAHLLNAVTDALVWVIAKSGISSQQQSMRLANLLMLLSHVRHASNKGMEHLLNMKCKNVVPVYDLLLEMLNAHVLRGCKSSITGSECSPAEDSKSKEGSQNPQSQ

[10] = biological target: T5, Dual specificity protein phosphatase 6
[11] = biological target: T3, Tyrosine-protein phosphatase non-receptor type 7; format: functional
SUMO-activating enzyme [12] = biological target: T2, SUMO-activating enzyme; assay: inhibitors of in vitro SUMOylation cascade, primary screen, biochemical, HTRF, uHTS (AID 2006); format: protein-complex assay
[13] = biological target: Glyceraldehyde-3-phosphate dehydrogenase (Homo sapiens, UniProt P04406)
Chain of Glyceraldehyde-3-phosphate dehydrogenase (P04406 whole entry): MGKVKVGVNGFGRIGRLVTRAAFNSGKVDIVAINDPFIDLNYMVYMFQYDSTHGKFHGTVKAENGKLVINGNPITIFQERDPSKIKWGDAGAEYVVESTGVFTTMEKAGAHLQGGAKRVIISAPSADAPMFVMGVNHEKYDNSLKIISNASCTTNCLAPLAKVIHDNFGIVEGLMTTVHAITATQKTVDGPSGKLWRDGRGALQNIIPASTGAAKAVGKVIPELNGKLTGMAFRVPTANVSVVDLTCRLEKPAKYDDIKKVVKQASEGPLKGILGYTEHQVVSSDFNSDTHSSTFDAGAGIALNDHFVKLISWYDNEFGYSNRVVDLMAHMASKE

[14] = biological target: Potassium voltage-gated channel subfamily KQT member 2 (Rattus norvegicus, UniProt O88943, W236L); assay: KCNQ2 channel potentiators, dose response, mechanism study for KCNQ2 potentiator project, cell-based, automated electrophysiology (AID 2603); format: functional
Chain of Potassium voltage-gated channel subfamily KQT member 2 (O88943 whole entry W236L, the tested form may be a part): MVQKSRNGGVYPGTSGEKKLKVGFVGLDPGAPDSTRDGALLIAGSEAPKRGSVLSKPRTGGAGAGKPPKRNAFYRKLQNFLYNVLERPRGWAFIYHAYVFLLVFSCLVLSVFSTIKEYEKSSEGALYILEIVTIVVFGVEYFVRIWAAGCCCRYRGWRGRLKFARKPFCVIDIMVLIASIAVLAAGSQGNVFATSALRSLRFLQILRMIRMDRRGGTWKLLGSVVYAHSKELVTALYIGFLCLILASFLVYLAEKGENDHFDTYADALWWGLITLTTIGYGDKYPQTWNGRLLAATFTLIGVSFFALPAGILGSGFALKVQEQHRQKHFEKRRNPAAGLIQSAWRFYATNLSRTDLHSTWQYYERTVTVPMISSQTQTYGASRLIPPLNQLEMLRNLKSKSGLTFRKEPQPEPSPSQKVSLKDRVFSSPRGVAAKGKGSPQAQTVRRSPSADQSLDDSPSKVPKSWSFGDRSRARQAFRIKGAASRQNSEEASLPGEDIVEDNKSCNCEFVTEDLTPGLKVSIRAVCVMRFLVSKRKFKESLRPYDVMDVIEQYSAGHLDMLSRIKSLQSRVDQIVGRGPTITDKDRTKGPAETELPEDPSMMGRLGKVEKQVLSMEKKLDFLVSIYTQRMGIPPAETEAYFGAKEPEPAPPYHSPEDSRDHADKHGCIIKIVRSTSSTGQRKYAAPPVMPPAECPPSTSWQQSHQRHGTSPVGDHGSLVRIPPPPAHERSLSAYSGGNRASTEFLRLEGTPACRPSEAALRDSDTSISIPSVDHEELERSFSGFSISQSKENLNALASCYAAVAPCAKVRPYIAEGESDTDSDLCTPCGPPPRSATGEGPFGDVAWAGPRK

Estrogen receptor = biological target: T7, Estrogen receptor (Homo sapiens, UniProt P03372); assay: potentiators of ERα–SRC-1 coactivator binding, dose response, biochemical, TR-FRET, ERα LBD (AID 737)
T7 sequence (P03372 whole entry): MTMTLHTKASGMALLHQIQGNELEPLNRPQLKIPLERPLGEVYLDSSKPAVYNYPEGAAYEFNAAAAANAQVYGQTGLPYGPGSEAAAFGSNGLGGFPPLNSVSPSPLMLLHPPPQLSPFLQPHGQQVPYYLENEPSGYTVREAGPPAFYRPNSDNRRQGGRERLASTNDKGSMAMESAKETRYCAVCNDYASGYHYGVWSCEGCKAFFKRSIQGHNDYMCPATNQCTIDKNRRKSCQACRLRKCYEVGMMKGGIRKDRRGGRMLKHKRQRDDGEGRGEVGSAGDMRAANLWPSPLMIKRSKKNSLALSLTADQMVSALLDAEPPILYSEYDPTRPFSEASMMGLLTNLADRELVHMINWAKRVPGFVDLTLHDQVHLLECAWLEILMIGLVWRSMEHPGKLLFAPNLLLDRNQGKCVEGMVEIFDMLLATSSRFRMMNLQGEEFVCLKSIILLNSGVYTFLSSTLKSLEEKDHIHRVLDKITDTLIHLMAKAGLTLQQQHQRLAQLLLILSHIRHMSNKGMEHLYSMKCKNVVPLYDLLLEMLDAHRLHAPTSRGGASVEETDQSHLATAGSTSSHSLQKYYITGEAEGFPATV

Protein RecA = biological target: T8, Protein RecA (Mycobacterium tuberculosis, UniProt P9WHJ3); assay: Fluorescence Cell-Free Homogeneous Dose Retest to Identify Inhibitors of RecA-Intein Splicing Activity. [Related pubchem assays (depositor defined):AID2097, AID2223, AID489010, AID492950]; format: functional
T8 sequence (P9WHJ3 whole entry): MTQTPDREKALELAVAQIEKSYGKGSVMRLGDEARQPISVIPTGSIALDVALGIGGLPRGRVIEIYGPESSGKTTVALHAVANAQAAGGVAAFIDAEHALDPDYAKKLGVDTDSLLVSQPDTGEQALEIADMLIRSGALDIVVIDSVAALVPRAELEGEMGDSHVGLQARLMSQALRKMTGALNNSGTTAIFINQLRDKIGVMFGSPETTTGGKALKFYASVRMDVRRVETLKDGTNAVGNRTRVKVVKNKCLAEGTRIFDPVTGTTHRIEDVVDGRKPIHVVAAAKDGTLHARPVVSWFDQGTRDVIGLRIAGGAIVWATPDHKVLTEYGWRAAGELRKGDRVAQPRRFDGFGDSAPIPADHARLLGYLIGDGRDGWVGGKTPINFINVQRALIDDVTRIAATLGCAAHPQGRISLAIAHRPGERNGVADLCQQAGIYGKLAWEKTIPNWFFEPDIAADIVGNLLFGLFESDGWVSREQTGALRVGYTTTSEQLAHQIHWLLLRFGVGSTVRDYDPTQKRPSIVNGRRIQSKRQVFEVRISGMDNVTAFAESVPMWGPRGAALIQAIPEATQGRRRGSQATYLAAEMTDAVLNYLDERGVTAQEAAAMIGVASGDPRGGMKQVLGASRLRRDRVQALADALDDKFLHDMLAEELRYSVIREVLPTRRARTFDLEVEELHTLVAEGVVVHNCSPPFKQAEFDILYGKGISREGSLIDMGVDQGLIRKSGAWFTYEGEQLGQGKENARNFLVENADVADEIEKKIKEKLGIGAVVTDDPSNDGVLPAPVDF

[15] = biological target: T9, Replicative DNA helicase DnaB (Mycobacterium tuberculosis, UniProt P9WMR3); assay: DnaB intein splicing inhibitors, dose response, biochemical, cell-free fluorescence (AID 449749); format: functional
T9 sequence (P9WMR3 whole entry): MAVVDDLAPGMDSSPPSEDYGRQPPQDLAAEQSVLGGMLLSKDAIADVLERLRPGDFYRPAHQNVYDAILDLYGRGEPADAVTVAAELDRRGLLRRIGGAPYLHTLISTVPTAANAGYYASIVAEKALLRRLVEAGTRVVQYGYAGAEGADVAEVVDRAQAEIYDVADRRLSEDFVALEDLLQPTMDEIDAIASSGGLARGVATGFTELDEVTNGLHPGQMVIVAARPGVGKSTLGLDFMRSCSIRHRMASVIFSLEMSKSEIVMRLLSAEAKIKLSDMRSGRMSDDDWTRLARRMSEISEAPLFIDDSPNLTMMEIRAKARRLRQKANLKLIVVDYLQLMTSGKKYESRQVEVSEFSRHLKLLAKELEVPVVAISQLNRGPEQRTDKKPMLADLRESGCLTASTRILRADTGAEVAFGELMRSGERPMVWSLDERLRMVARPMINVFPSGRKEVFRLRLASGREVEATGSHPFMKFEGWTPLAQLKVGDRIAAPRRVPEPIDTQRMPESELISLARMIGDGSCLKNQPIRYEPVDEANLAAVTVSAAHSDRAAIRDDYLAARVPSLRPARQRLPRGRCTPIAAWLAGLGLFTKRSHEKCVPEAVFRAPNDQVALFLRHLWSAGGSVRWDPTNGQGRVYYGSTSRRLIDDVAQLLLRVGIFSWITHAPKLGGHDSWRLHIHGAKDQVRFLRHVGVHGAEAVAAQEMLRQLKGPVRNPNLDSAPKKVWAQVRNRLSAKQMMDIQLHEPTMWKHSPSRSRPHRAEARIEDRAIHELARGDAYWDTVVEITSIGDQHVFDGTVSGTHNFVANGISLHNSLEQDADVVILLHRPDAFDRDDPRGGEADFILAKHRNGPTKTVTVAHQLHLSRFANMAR

[16] = biological target: T10, Neuropeptide Y receptor type 2 (Homo sapiens, UniProt P49146); assay: NPY-Y2 antagonist potency, selectivity check, dose response, counter-screen for NPY-Y1 antagonist project, cell-based (AID 1278); format: functional
T10 sequence (P49146 whole entry): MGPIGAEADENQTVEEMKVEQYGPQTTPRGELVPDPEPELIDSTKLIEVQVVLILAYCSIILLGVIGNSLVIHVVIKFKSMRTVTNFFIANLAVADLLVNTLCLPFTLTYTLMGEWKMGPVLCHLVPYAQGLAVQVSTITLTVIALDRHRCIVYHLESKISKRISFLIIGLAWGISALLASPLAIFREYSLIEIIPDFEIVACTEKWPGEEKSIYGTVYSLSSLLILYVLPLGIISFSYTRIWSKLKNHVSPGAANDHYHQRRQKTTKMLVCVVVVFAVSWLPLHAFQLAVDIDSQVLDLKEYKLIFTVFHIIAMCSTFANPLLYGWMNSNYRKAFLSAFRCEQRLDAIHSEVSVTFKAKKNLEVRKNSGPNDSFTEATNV

[17] = biological target: T11, Neuropeptide Y receptor type 1 (Homo sapiens, UniProt P25929); assay: NPY-Y1 receptor antagonist potency, dose response, cell-based (AID 1277); format: functional
T11 sequence (P25929 whole entry): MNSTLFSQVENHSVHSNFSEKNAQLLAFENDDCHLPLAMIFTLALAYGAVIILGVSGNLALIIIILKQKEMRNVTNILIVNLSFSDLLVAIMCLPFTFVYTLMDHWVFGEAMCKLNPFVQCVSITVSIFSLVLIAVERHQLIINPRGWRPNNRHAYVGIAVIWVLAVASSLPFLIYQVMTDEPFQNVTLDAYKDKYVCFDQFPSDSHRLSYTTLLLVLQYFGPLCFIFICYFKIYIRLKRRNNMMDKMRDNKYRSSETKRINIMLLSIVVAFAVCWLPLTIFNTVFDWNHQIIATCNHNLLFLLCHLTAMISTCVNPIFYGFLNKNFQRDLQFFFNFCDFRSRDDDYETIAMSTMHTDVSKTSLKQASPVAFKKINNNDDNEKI

T1 sequence (P98170 whole entry): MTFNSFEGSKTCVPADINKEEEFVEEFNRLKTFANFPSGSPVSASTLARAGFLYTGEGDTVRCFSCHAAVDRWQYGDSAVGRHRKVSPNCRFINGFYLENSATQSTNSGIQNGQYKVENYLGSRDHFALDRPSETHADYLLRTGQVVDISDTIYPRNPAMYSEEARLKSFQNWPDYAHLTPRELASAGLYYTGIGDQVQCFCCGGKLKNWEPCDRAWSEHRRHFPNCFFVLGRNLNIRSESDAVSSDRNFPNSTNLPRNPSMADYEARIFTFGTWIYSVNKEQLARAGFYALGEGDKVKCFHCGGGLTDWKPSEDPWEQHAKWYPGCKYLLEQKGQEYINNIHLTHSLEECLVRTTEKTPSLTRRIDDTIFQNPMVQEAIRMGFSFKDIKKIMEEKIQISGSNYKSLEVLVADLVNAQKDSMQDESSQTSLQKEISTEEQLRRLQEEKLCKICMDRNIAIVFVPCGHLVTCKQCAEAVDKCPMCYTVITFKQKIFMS

Compound: C=C(C)CC1N(c2cccc(OC)c2)C(=O)C2C(C(=O)O)C3C=CC21O3 (stereo not drawn)
- IC50 [1]: > 100 µM (not active)
- IC50 [2]: > 100 µM (inactive)

Compound: CN(C)c1nc(N)nc(CSc2nnnn2-c2ccccc2)n1
- EC50 [3]: > 195 µM (not active)

Compound: CSc1nnc(-c2ccco2)c(-c2ccco2)n1
- IC50 (SUMO-activating enzyme [4]): 2.91 µM (active)
- IC50 (Bcl-2-like protein 1): > 109 µM (not active)
- IC50 [5]: 29.5 µM (active)
- IC50 [6]: 1.04 µM (active)
- IC50 [7]: 8.02 µM (active)
- IC50 [8]: 99.7 µM (active)
- IC50 (Genome polyprotein): 86.8 µM (active)
- IC50 (Bcl-2-like protein 10): 19.4 µM (active)
- IC50 [9]: 13.2 µM (not active)
- IC50 (Estrogen receptor beta): > 50 µM (not active)
- IC50 [10]: 80.4 µM (active)
- IC50 [11]: 41.5 µM (active)
- IC50 (SUMO-activating enzyme [12]): 15.2 µM (active)
- IC50 [13]: 99.1 µM (active)

Compound: CC(C)(C)c1ccc(OCCC(=O)NCC(c2cccs2)N2CCOCC2)cc1 (stereo not drawn)
- EC50 [14]: 1.97 µM (active)

Compound: CCc1n[nH]c2c1C(c1cccc(OC(=O)N3CCOCC3)c1)C(C#N)=C(N)O2 (stereo not drawn)
- EC50 (Estrogen receptor): 6.39 µM (not active)
- EC50 (Protein RecA): 9.88 µM (active)
- AC50 [15]: 20.3 µM (active)

Compound: Brc1ccc(-c2csc(/N=C/N3CCCC3)n2)cc1
- IC50 [16]: > 35 µM (not active)
- IC50 [17]: > 35 µM (not active)
